Where a name gives a salt, the structure may show the parent alone. Read-outs that look alike come from different tables or passages of the source. One block for each compound: values may come before it.
Legend:
CCRF-CEM = assay: CellTiterGlo cell viability assay, CCRF-CEM; type: cell-based; conditions: 72 h; for EC50: read-out: Ab EC50; for inhibition at 198 µM: percentage inhibition at the highest concentration tested, read-out: Top Inh
Outline: (§1)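 Luminescent ATP readout (CellTiterGlo) gives absolute EC50 values and top-concentration percentage inhibition. Cells had been treated for ~72 h with a 9-point, 3.16-fold dilution series starting at 198 μM final, tested in duplicate.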

RL = assay: CellTiterGlo cell viability assay, RL; type: cell-based; conditions: Homo sapiens, 72 h
Outline: as §1

HL-60 = assay: CellTiterGlo cell viability assay, HL-60; type: cell-based; conditions: Homo sapiens, HL-60, 72 h; for inhibition at 198 µM: read-out: Top Inh
Outline: as §1

MOLT-4 = assay: CellTiterGlo cell viability assay, MOLT-4; type: cell-based
Outline: as §1

in vitro = conditions: human, hepatocytes, pH 7.3
RPMI-8226 = assay: CellTiterGlo cell viability assay, RPMI-8226; type: cell-based, Human
Outline: as §1

HT29 = assay: CellTiterGlo cell viability assay, HT29; type: cell-based; conditions: Homo sapiens, HT29, 72 h; for EC50: read-out: Ab EC50; for inhibition at 198 µM: percentage inhibition at the highest concentration tested, read-out: Top Inhibit
Outline: as §1

KG-1 = assay: CellTiterGlo cell viability assay, KG-1; type: cell-based; conditions: Homo sapiens, KG-1, 72 h
Outline: as §1

HepG2 = assay: CellTiterGlo cell viability assay, HepG2; type: cell-based
Outline: as §1

K562 = assay: CellTiterGlo cell viability assay, K562; type: cell-based
Outline: as §1

MCF-7 = assay: CellTiterGlo cell viability assay, MCF-7; type: cell-based; conditions: MCF-7, 72 h; for inhibition at 198 µM: percentage inhibition at the highest concentration tested, read-out: Top Inhibit; for EC50: read-out: Ab EC50
Outline: as §1

OVCAR 3 = assay: CellTiterGlo cell viability assay, OVCAR 3; type: cell-based; conditions: Homo sapiens; for EC50: read-out: Ab EC50; for inhibition at 198 µM: percentage inhibition at the highest concentration tested, read-out: Top Inhibit
Outline: as §1

Mia-Pa-Ca-2 = assay: CellTiterGlo cell viability assay, Mia-Pa-Ca-2; type: cell-based; conditions: Homo sapiens, MIA PaCa-2, Mia-Pa-Ca-2, 72 h; for EC50: absolute EC50, read-out: Ab EC50; for inhibition at 198 µM: percentage inhibition at the highest concentration tested, read-out: Top Inhibit
Protocol: A subset of compounds of the invention were assayed for their cytotoxic activity in an array of different solid tumours and haematological malignancies using the following assay.
In vitro viability assay were performed to assess the effects of compounds on cell viability in selected cell lines over 72 h using the CellTiterGlo (CTG, Promega-G7573) assay. The tests were performed in duplicates with treatment of compounds at 9 points, 3.16 folds titration in 96 well plates over ˜72 h. The compound starting concentrations were 198 μM. Cell viability assay using CellTiterGlo in 96-well plate were performed. Compound treatment 72 h, standard growth conditions, duplicates. Compounds were dissolved to 40 mM with thawed […]. Compounds were serially diluted at 3.16 fold in thawed DMSO, and warmed to 37° C. before being dissolved in media (2 μL+200 μL). After compounds were dissolved in media, media containing compounds were warmed to 37° C. in incubator and then compounds in media were added to cell plates (50 μL+50 μL) in duplicates. The compounds' final concentrations were from 198 μM to 19.8 nM. All compound solubilities were checked and recorded again, then the plates were transferred to CO2 tissue culture incubator immediately and incubated for 3 days. DMSO final concentration is 0.5%. The parent nucleoside in each case was tested as a comparator, as was an exemplary ProTide. The drugs of the ProTide class that were tested were as follows:
The following cell lines were tested and are referred to in the Table 1 below:
In Tables 2, 3 and 4, ‘Ab EC50’ refers to the absolute EC50 and ‘Top inhibit’ refers to the percentage inhibition achieved at the highest concentration tested.

[1] = read-out: Top Inh, RL, 72 h, percentage inhibition at the highest concentration tested
[2] = Homo sapiens, MOLT-4, 72 h, percentage inhibition at the highest concentration tested, read-out: Top Inh
[3] = Homo sapiens, RPMI-8226, 72 h, read-out: Top Inh, RPMI-8226, 72 h, percentage inhibition at the highest concentration tested
[4] = Homo sapiens; HepG2, 72 h, percentage inhibition at the highest concentration tested; read-out: Top Inhibit
[5] = Homo sapiens, K562, 72 h, read-out: Ab EC50
[6] = absolute EC50, numeric values, read-out: Ab EC50
[7] = percentage inhibition at the highest concentration tested, read-out: Top Inh
[8] = percentage inhibition at the highest concentration tested
[9] = Homo sapiens; MOLT-4, 72 h, absolute EC50, numeric values; read-out: Ab EC50
[10] = Homo sapiens; MOLT-4, 72 h, percentage inhibition at the highest concentration tested; read-out: Top Inh
[11] = HT-29, absolute EC50, numeric values
[12] = Table 3 classes, read-out: Ab EC50

SMILES: C[C@H](NP(=O)(OC[C@H]1O[C@@H](n2cnc3c(N)nc(Cl)nc32)[C@H](F)C1O)Oc1ccccc1)C(=O)OCc1ccccc1 (stereo partly shown) [A, reference compound]
EC50 (CCRF-CEM; Table 4 classes): < 0.2 µM
EC50 (CCRF-CEM; Homo sapiens, Table 3 classes): < 0.2 µM
inhibition at 198 µM (CCRF-CEM; Homo sapiens): 99.4%
EC50 (RL; read-out: Ab EC50, RL, 72 h, Table 3 classes): 2 to 5 µM
EC50 (RL; read-out: Ab EC50, RL, 72 h, Table 4 classes): 1 to 5 µM
inhibition at 198 µM (RL; [1]): 99.8%
EC50 (HL-60; read-out: Ab EC50, HL-60, 72 h, Table 3 classes): 0.2 to 2 µM
EC50 (HL-60; read-out: Ab EC50, HL-60, 72 h, Table 4 classes): 0.2 to 1 µM
inhibition at 198 µM (HL-60): 97%
EC50 (MOLT-4; Homo sapiens, MOLT-4, 72 h, Table 3 classes, read-out: Ab EC50): 0.2 to 2 µM
EC50 (MOLT-4; Homo sapiens, MOLT-4, 72 h, Table 4 classes, read-out: Ab EC50): 0.2 to 1 µM
inhibition at 198 µM (MOLT-4; [2]): 93%
half-life at 1 μM (in vitro): 24 min
EC50 (RPMI-8226; Homo sapiens, RPMI-8226, 72 h, read-out: Ab EC50, RPMI-8226, 72 h, Table 3 classes): 2 to 5 µM
EC50 (RPMI-8226; Homo sapiens, RPMI-8226, 72 h, read-out: Ab EC50, RPMI-8226, 72 h, Table 4 classes): 1 to 5 µM
inhibition at 198 µM (RPMI-8226; [3]): 97%
EC50 (HT29; HT-29, 72 h, Table 3 classes): 2 to 5 µM
EC50 (HT29; HT-29, 72 h, Table 4 classes): 1 to 5 µM
inhibition at 198 µM (HT29; HT-29, 72 h): 94%
EC50 (KG-1; read-out: Ab EC50): 0.2 to 1 µM
inhibition at 198 µM (KG-1; read-out: Top Inhibit): 93%
EC50 (HepG2; Homo sapiens; HepG2, 72 h, Table 4 classes; read-out: Ab EC50): 5 to 10 µM
inhibition at 198 µM (HepG2; [4]): 99%
EC50 (K562; [5]): > 10 µM
EC50 (K562; read-out: Ab EC50; K 562, 72 h, Table 4 classes): > 10 µM
inhibition at 198 µM (MCF-7; Homo sapiens, MCF7, 72 h): 99.6%
EC50 (MCF-7; Homo sapiens, MCF7, Table 3 classes): 5 to 10 µM
EC50 (MCF-7; Table 4 classes): 5 to 10 µM
EC50 (OVCAR 3; OVCAR 3, 72 h, Table 4 classes): > 10 µM
inhibition at 198 µM (OVCAR 3; OVCAR 3, 72 h): 94%

SMILES: Nc1ncnc2c1ncn2[C@@H]1O[C@H](CO)C[C@H]1O [Cordycepin, reference compound]
EC50 (RL; [6]): > 198 µM
inhibition at 198 µM (RL; [7]): 16.6%
EC50 (Mia-Pa-Ca-2): 84.7 µM
inhibition at 198 µM (Mia-Pa-Ca-2): 88%
EC50 (HL-60; [6]): 118 µM
inhibition at 198 µM (HL-60; [8]): 56%
EC50 (MOLT-4; [9]): 101 µM
inhibition at 198 µM (MOLT-4; [10]): 76.5%
half-life (in vitro): 48 min
EC50 (RPMI-8226; Homo sapiens; RPMI-8226, 72 h, absolute EC50, numeric values; read-out: Ab EC50): > 198 µM
inhibition at 198 µM (RPMI-8226; Homo sapiens; RPMI-8226, 72 h, percentage inhibition at the highest concentration tested; read-out: Top Inh): 17%
EC50 (HT29; [11]): 32.7 µM
inhibition at 198 µM (HT29; HT-29): 87%
EC50 (K562; Homo sapiens; K562, 72 h, absolute EC50, numeric values; read-out: Ab EC50): 118 µM
inhibition at 198 µM (K562; Homo sapiens; K562, 72 h, percentage inhibition at the highest concentration tested; read-out: Top Inh): 94%

SMILES: C[C@H](NP(=O)(OC[C@@H]1C[C@H](O)[C@H](n2cnc3c(N)ncnc32)O1)Oc1ccccc1)C(=O)OCc1ccccc1 (stereo partly shown) [E, reference compound]
EC50 (RL; read-out: Ab EC50, RL, 72 h, absolute EC50, numeric values): 18.3 µM
inhibition at 198 µM (RL; [1]): 90.5%
EC50 (Mia-Pa-Ca-2): 7.92 µM
inhibition at 198 µM (Mia-Pa-Ca-2): 98%
EC50 (HL-60; read-out: Ab EC50, HL-60, 72 h, absolute EC50, numeric values): 31.1 µM
inhibition at 198 µM (HL-60): 97%
EC50 (MOLT-4; Homo sapiens, MOLT-4, 72 h, absolute EC50, numeric values, read-out: Ab EC50): 5.23 µM
inhibition at 198 µM (MOLT-4; [2]): 96%
EC50 (RPMI-8226; Homo sapiens, RPMI-8226, 72 h, read-out: Ab EC50, RPMI-8226, 72 h, absolute EC50, numeric values): 19.8 µM
inhibition at 198 µM (RPMI-8226; [3]): 97.8%
EC50 (HT29; HT-29, 72 h, absolute EC50, numeric values): 10.8 µM
inhibition at 198 µM (HT29; HT-29, 72 h): 97%
EC50 (K562; [5]): 11 µM
inhibition at 198 µM (K562; Homo sapiens, K562, 72 h, read-out: Top Inh, K562, 72 h, percentage inhibition at the highest concentration tested): 87%

SMILES: Nc1nc(Cl)nc2c1ncn2[C@@H]1O[C@H](COP(=O)(O)OP(=O)(NCC(=O)OCc2ccccc2)Oc2ccccc2)C(O)[C@H]1F (stereo partly drawn) [Example 3, 2-Chloro-9-(2′-Deoxy-2′-fluoro-β-D-arabinofuranosyl)adenine-5′-O-[phenyl(benzoxy-L-glycinyl)] Diphosphate Triethylammonium Salt]
EC50 (CCRF-CEM; Homo sapiens, Table 3 classes): < 0.2 µM
inhibition at 198 µM (CCRF-CEM; Homo sapiens): 99.6%
EC50 (RL; [12]): 0.2 to 2 µM
inhibition at 198 µM (RL; [7]): 63%
EC50 (HL-60; [12]): < 0.2 µM
inhibition at 198 µM (HL-60; [8]): 97%
inhibition at 198 µM (MOLT-4; [2]): 96%
EC50 (MOLT-4; Homo sapiens; MOLT-4, 72 h, Table 3 classes; read-out: Ab EC50): < 0.2 µM
half-life (in vitro): 20 to 100 min
EC50 (RPMI-8226; Homo sapiens, RPMI-8226, 72 h, Table 3 classes, read-out: Ab EC50): 5 to 10 µM
inhibition at 198 µM (RPMI-8226; Homo sapiens, RPMI-8226, 72 h, percentage inhibition at the highest concentration tested, read-out: Top Inh): 91.6%
EC50 (HT29; HT-29, 72 h, Table 3 classes): 0.2 to 2 µM
inhibition at 198 µM (HT29; HT-29, 72 h): 61%
EC50 (HepG2; Homo sapiens, HepG2, 72 h, Table 3 classes, read-out: Ab EC50): 2 to 5 µM
inhibition at 198 µM (HepG2; Homo sapiens, HepG2, 72 h, percentage inhibition at the highest concentration tested, read-out: Top Inhibit): 53%
inhibition at 198 µM (K562; Homo sapiens, K562, 72 h, percentage inhibition at the highest concentration tested; read-out: Top Inh): 24%
EC50 (K562; Homo sapiens; K562, 72 h, Table 3 classes; read-out: Ab EC50): > 10 µM
EC50 (MCF-7; Homo sapiens, MCF7, 72 h, Table 3 classes): 2 to 5 µM
inhibition at 198 µM (MCF-7; Homo sapiens, MCF7, 72 h): 59%
inhibition at 198 µM (OVCAR 3; OVCAR-3, 72 h): 49%
EC50 (OVCAR 3; OVCAR 3, 72 h, Table 3 classes): > 10 µM

EC50 (CCRF-CEM; Homo sapiens, absolute EC50, numeric values): 0.02 µM
EC50 (Mia-Pa-Ca-2): 0.03 µM
EC50 (MOLT-4; [9]): 0.004 µM
EC50 (HT29; [11]): 0.22 µM
EC50 (HepG2; Homo sapiens; HepG2, 72 h, absolute EC50, numeric values; read-out: Ab EC50): 28 µM
EC50 (MCF-7; Homo sapiens, MCF7, absolute EC50, numeric values): 0.011 µM
EC50 (OVCAR 3; OVCAR 3, 72 h, absolute EC50, numeric values): > 198 µM
SMILES: Nc1ccn([C@@H]2O[C@H](CO)[C@@H](O)C2(F)F)c(=O)n1 [Gemcitabine, reference compound]
inhibition at 198 µM (CCRF-CEM; Homo sapiens): 101%
inhibition at 198 µM (Mia-Pa-Ca-2): 79%
inhibition at 198 µM (MOLT-4; [10]): 88%
inhibition at 198 µM (HT29; HT-29): 65%
inhibition at 198 µM (HepG2; [4]): 54%
inhibition at 198 µM (MCF-7; Homo sapiens, MCF7): 53%
inhibition at 198 µM (OVCAR 3; OVCAR 3, 72 h): 44%
